This note sets out measurements from patent US12370192B2, “Azole-fused pyridazin-3(2H)-one derivatives” (TAKEDA PHARMACEUTICAL COMPANY LIMITED, priority 2019, dated 2025).

Test [1] has as its target T1, human GPR139 receptor (Homo sapiens, UniProt Q6DWJ6).
T1 construct: expressed in transfected cells; host or cells: T-REx-CHO (Thermo Fisher Scientific), doxycycline-induced
T1 sequence (Q6DWJ6 1-353): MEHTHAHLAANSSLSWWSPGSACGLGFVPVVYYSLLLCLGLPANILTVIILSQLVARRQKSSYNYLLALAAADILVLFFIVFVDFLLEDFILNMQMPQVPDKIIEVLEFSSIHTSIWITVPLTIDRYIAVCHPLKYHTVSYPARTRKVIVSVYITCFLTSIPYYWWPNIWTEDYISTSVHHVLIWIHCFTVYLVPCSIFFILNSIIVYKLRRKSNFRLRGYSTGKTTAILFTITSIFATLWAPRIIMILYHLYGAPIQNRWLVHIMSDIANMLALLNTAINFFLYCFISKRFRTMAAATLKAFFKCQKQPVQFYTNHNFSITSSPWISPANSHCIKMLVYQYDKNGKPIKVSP
The experiment in a line: GPR139 Competition Binding (membrane-based, tritium-labeled ligand). Particulars: T-REx-CHO membranes with human GPR139; 6.5 nM tritium-labeled ligand; 11-point curve, 30 μM maximum concentration; read-out: GPR139 Binding Affinity (pKi) (converted). As to the method: OPR139 Competition Binding
This membrane-based assay measures the ability of compounds to competitively bind GPR139 in stably transfected TREx™-CHO membranes. To prepare the membranes, T-REx™-CHO (Thermo Fisher Scientific®) cells are stably expressed with human GPR139 receptor, whose expression is controlled by a tetracycline-inducible element. The cells are cultured in medium containing F-12K nutrient mixture-Kaighn's modification, 10% tetracycline-free FBS, Blasticidin S HCl (10 μg/mL) and Hygromycin B (200 μg/mL). GPR139 receptor expression is induced for 18 hours with 2 μg/mL doxycycline (Sigma D9891) in growth media. After addition of doxycycline, cells are harvested in PBS and pelleted by centrifugation for 5 minutes at 200×G. Liquid is aspirated off and cells are resuspended in ice cold lysis buffer (20 mM HEPES/5 mM EDTA pH 7.4/1× Roche® protease inhibitor). Samples are vortexed until homogenous and then placed on ice and homogenized using a Dounce homogenizer at 50% power (3 cycles, 10 strokes per cycle). Lysate is centrifuged at 4° C. for 10 minutes in a tabletop Sorvall® centrifuge at 2000×G. The supernatant is recovered and centrifuged in a Sorvall® ultracentrifuge at 35,000 rpm for 30 minutes at 4° C. The supernatant is discarded, and the remaining pellet resuspended in lysis buffer (20 mM HEPES/0.1 mM EGTA/Roche® protease inhibitor). Membrane protein concentration is determined using Thermo Fisher® BCA quantification kit and is aliquoted into microtubes. Tubes are snap frozen in liquid nitrogen and stored at −80° C. Prior to use, the membranes are removed from cold storage, thawed to room temperature, vortexed until homogenous and diluted in assay buffer (20 mM HEPES pH 7.3, 5 mM MgCl2, 1 mM CaCl2), 1× Thermo Scientific® Halt™ protease inhibitor (78429)).
The assay is run in 96-well, polypropylene, v-bottom plates (Greiner Bio-One® 651201). Test compound in DMSO is added to the wells of each plate (11-point dose response curve, 30 μM maximum concentration, 3-fold serial dilution). A fixed amount of tritium-labeled ligand, (S)-2-(2,3-dimethyl-7-oxothieno[2,3-d]pyridazin-6(7H)-yl)-N-(1-(4-methoxyphenyl-2-t)propan-2-yl)acetamide (Quotient Bioresearch) in assay buffer (6.5 nM assay concentration) is added to each well of the assay plate, which is then agitated on a plate shaker for 30 seconds. Next, a fixed amount of membranes in assay buffer (2 μg membranes) is added to each well of the assay plate, which is then spun for 30 seconds at 300 rpm in a tabletop Eppendorf centrifuge, and then incubated at room temperature for 20 minutes. Using a Tomtec harvester, the contents of the assay plate are transferred to Filtermat A (PerkinElmer® No. 1450-421) which prior to use is pre-soaked in 0.5% PEI (Sigma P3143) for 3 hours and dried at room temperature overnight. Following transfer, the Filtermat is washed 5 times with cold wash buffer (20 mM HEPES pH 7.3, 100 mM NaCl). The Filtermat is dried using a microwave oven and placed in a sample bag (PerkinElmer® No. 1450-432) with a scintillator sheet (PerkinElmer® No. 1450-411). The scintillator sheet is melted to the Filtermat using a heat block set to 65° C., placed in a MicroBeta® cartridge and read using a MicroBeta® scintillation counter. Binding curves are generated with a four-parameter logistic equation using GraphPad Prism® 6 and the inhibition constant Ki is reported as pKi.

Test [2] addresses T1, human GPR139 receptor. Kind of test: Measurement of GPR139 Activation Via Calcium Signaling (FLIPR, T-REx-CHO cells). The test is classed as cell-based. Particulars: T-REx-CHO cells stably expressing human GPR139, 11-point dose response, 10 μM maximum concentration, read-out: GPR139 Potency (pEC50) (converted). As to the method:
Measurement of GPR139 Activation Via Calcium Signaling
This cell-based assay measures the ability of compounds to activate GPR139 in stably transfected T-REx™-CHO cells. T-REx™-CHO cells (Thermo Fisher Scientific®) are stably expressed with human GPR139 receptor, whose expression is controlled by a tetracycline-inducible element. The cells are cultured in medium containing F-12K nutrient mixture-Kaighn's modification, TripleLE™ Express (1×)-phenol red, Dulbecco's phosphate-buffered saline (1×), 10% tetracycline-free FBS, Blasticidin S HCl (10 μg/mL) and Hygromycin B (200 μg/mL). The cells are introduced into the wells of a 384-well black clear bottom plate (Costar®) at 10,000 cells/well. GPR139 receptor expression is induced with 2 μg/mL doxycycline (Sigma D9891). The plate is allowed to stand at room temperature for 10-30 minutes and then incubated at 37° C. and 5% CO2 for 17 hours prior to assay.
Culture media is removed from cells and 45 μL of 1× calcium dye (2.5 mM) is added to each well and incubated at 37° C. and 5% CO2 for 40 minutes. The plate is removed from the incubator and allowed to stand at RT for 20 minutes without a plate cover prior to measurement of calcium signaling. The calcium dye is prepared by adding 10 mL of assay buffer (Hank's Balanced Salt Solution (1×), 1 mM HEPES at pH 7.4) to one vial of calcium dye (FLIPR® Calcium 5 Assay Kit; Molecular Devices) at room temperature, vortexing the mixture until homogenous, and transferring the dye to a 250 mL flask using 10 mL of assay, buffer to rinse the vial. The dye is subsequently transferred to a conical flask, which is filled to the 200 mL mark with assay buffer, and 1 mL of […] probenecid solution (142.68 mg/mL in 1M NaOH aq) is added.
Example compounds suspended in DMSO are received from compound management in microtiter plates (0.25 μL/well) and are diluted in assay buffer (25 μL). Following incubation of the cell plate, the Example compounds are added to the cells (11-point dose response, 10 μM maximum concentration) using a FLIPR® Tetra system (Molecular Devices) and fluorescence is measured continuously for 1 minute. EC50 curves are generated with a four-parameter logistic equation using GraphPad Prism® 6, and activation of GPR139 for each example compound is reported as pEC50.

`COc1ccc([C@H](C)NC(=O)Cn2ncc3c(c(C4CC4)nn3C)c2=O)cc1` [Example 116, (S)-2-(3-cyclopropyl-1-methyl-4-oxo-1,4-dihydro-5H-pyrazolo[3,4-d]pyridazin-5-yl)-N-(1-(4-methoxyphenyl)ethyl)acetamide]: the Ki in test [1] was 339 nM. Besides, the EC50 in test [2] is 74.1 nM.

Turning to `Cc1nn(CC(=O)N[C@@H](C)c2ccc(C(F)(F)F)cc2)c(=O)c2cnn(C)c12` [Example 72, (S)-2-(1,7-dimethyl-4-oxo-1,4-dihydro-5H-pyrazolo[3,4-d]pyridazin-5-yl)-N-(1-(4-(trifluoromethyl)phenyl)ethyl)acetamide], the Ki in test [1] was 1910 nM. For the same molecule, in test [2], the EC50 was 55 nM.

Turning to `COc1ccc([C@H](C)NC(=O)Cn2ncc3c(c(C)nn3C)c2=O)cc1` [Example 48, (S)-2-(1,3-dimethyl-4-oxo-1,4-dihydro-5H-pyrazolo[3,4-d]pyridazin-5-yl)-N-(1-(4-methoxyphenyl)ethyl)acetamide], the Ki in test [1] is 1910 nM. For the same molecule, in test [2], the EC50 was 33.1 nM.

Regarding `Cc1ccc([C@H](C)NC(=O)Cn2nc(C)c3c(C)nn(C4CC4)c3c2=O)c(F)c1` [Example 69, (S)-2-(1-cyclopropyl-3,4-dimethyl-7-oxo-1,7-dihydro-6H-pyrazolo[3,4-d]pyridazin-6-yl)-N-(1-(2-fluoro-4-methylphenyl)ethyl)acetamide], in test [1], the Ki was 0.447 nM. The EC50 in test [2] was 69.2 nM.

Regarding `COc1ccc([C@H](C)NC(=O)Cn2nc(C)c3c(c(C)nn3C(C)C)c2=O)cc1` [Example 57, (S)-2-(1-isopropyl-3,7-dimethyl-4-oxo-1,4-dihydro-5H-pyrazolo[3,4-d]pyridazin-5-yl)-N-(1-(4-methoxyphenyl)ethyl)acetamide], the Ki in test [1] was 3090 nM. In test [2], the EC50 is 132 nM.

With `Cc1ccc([C@H](C)NC(=O)Cn2ncc3c(c(C4CC4)nn3C)c2=O)cc1` [Example 38, (S)-2-(3-cyclopropyl-1-methyl-4-oxo-1,4-dihydro-5H-pyrazolo[3,4-d]pyridazin-5-yl)-N-(1-(p-tolyl)ethyl)acetamide], the Ki in test [1] was 72.4 nM. Further, the EC50 in test [2] is 55 nM.

Regarding `Cc1ccc([C@H](C)NC(=O)Cn2ncc3ccn(C)c3c2=O)c(F)c1` [Example 165, (S)—N-(1-(2-fluoro-4-methylphenyl)ethyl)-2-(1-methyl-7-oxo-1,7-dihydro-6H-pyrrolo[2,3-d]pyridazin-6-yl)acetamide], the Ki in test [1] is 70.8 nM. In addition, the EC50 in test [2] is 12.6 nM.

With `Cc1ccc([C@H](C)NC(=O)Cn2ncc3c(c(C(F)(F)F)nn3C)c2=O)cc1F` [Example 171, (S)—N-(1-(3-fluoro-4-methylphenyl)ethyl)-2-(1-methyl-4-oxo-3-(trifluoromethyl)-1,4-dihydro-5H-pyrazolo[3,4-d]pyridazin-5-yl)acetamide], the Ki in test [1] is 24 nM. The EC50 in test [2] was 41.7 nM.

With `COc1cc([C@H](C)NC(=O)Cn2ncc3c(c(C)nn3C3CC3)c2=O)ccc1F` [Example 132, (S)-2-(1-cyclopropyl-3-methyl-4-oxo-1,4-dihydro-5H-pyrazolo[3,4-d]pyridazin-5-yl)-N-(1-(4-fluoro-3-methoxyphenyl)ethyl)acetamide], the Ki in test [1] was 2240 nM. Besides, the EC50 in test [2] was 708 nM.

As to `C[C@H](NC(=O)Cn1ncc2c(ncn2C)c1=O)c1ccc(C(F)(F)F)cc1` [Example 141, (S)-2-(1-methyl-4-oxo-1,4-dihydro-5H-imidazo[4,5-d]pyridazin-5-yl)-N-(1-(4-(trifluoromethyl)phenyl)ethyl)acetamide], the Ki in test [1] was 5890 nM. The EC50 in test [2] was 457 nM.

Take `Cc1nn(C2CC2)c2cnn(CC(=O)N[C@@H](C)c3cccc(F)c3F)c(=O)c12` [Example 30, (S)-2-(1-cyclopropyl-3-methyl-4-oxo-1,4-dihydro-5H-pyrazolo[3,4-d]pyridazin-5-yl)-N-(1-(2,3-difluorophenyl)ethyl)acetamide]: the Ki in test [1] is 257 nM. Moreover, the EC50 in test [2] was 72.4 nM.

For `Cc1ccc([C@H](C)NC(=O)Cn2ncc3c(C4CC4)nn(C)c3c2=O)cc1` [Example 149, (S)-2-(3-cyclopropyl-1-methyl-7-oxo-1,7-dihydro-6H-pyrazolo[3,4-d]pyridazin-6-yl)-N-(1-(p-tolyl)ethyl)acetamide], the Ki in test [1] is 219 nM. The EC50 in test [2] was 26.3 nM.

As for `Cc1ccc([C@H](C)NC(=O)Cn2ncc3c(c(C(C)C)nn3C)c2=O)c(F)c1` [Example 49, (S)—N-(1-(2-fluoro-4-methylphenyl)ethyl)-2-(3-isopropyl-1-methyl-4-oxo-1,4-dihydro-5H-pyrazolo[3,4-d]pyridazin-5-yl)acetamide], the Ki in test [1] is 22.9 nM. Moreover, the EC50 in test [2] is 49 nM.

Take `Cc1nn(C2CC2)c2cnn(CC(=O)N[C@@H](C)c3cc(F)cc(F)c3)c(=O)c12` [Example 135, (S)-2-(1-cyclopropyl-3-methyl-4-oxo-1,4-dihydro-5H-pyrazolo[3,4-d]pyridazin-5-yl)-N-(1-(3,5-difluorophenyl)ethyl)acetamide]: the Ki in test [1] was 132 nM. The EC50 in test [2] was 14.1 nM.

As for `COc1ccc([C@H](C)NC(=O)Cn2ncc3c(c(C)nn3C(C)C)c2=O)cc1` [Example 17, (S)-2-(1-isopropyl-3-methyl-4-oxo-1,4-dihydro-5H-pyrazolo[3,4-d]pyridazin-5-yl)-N-(1-(4-methoxyphenyl)ethyl)acetamide], the Ki in test [1] is 2950 nM. The EC50 in test [2] is 57.5 nM.
